According to US20070093460A1, “Methods of using selective 11beta-HSD inhibitors to treat gluocorticoid associated states” (priority 2005, published 2007):
Entries after “also recorded” stand apart in the source; their conditions may differ. Read-outs that look alike come from different tables or passages of the source.

Columns and labels:
rat aortic rings = assay: Contractile response of rat aortic rings to phenylephrine; type: cell-based; settings: 11-dehydro-corticosterone 100 nmol/L, 24 h; antisense 3 μmol/L vs nonsense
Protocol: Male Sprague-Dawley (150-200 g) rats were anesthetized with pentobarbital (50 mg/kg IP), and a median sternotomy was performed followed by the rapid removal of the thoracic aorta. The adventitia was removed, but the endothelium was left intact. The aorta was cut into 2-3 mm rings and individual rings were placed into a single well of a twenty four well culture plate and incubated at 37° C. under 95% 02-5% CO2. Each well contained 1 mL of DMEM/F12 containing 1% fetal bovine serum, streptomycin (100 μg/ml), penicillin (100 units/ml) and amphotericin (0.25 μg/ml). Aortic rings were incubated for 24 hours prior to contractility measurements with the following combinations of steroids, and antisense/nonsense oligonucleotides (3 μmol/L):
Antisense phosphorothioate oligonucleotides, targeted to block either 11β-HSD2 or 11β-HSD1 gene expression, were obtained from Research Genetics, Huntsville Ala. Antisense oligomers complementary to 20 bp sequences spanning the ribosome binding/translation start site were used. Oligomer sequences were: 5′-CATAACTGCCGTCCAACAGC-3′ (SEQ ID NO. 1) for 11β-HSD1 Antisense and 5′-AGGCCAGCGCTCCATGACTT-3′ (SEQ ID NO 2) for 11β-HSD2 antisense. In control experiments the corresponding sense sequence was used as the nonsense oligomer. Antisense and nonsense oligomers were added directly to each well at 20 μg/10:1 sterile H2O per well for a final concentration of 3 μmol/L.
For contraction measurements, aortic rings were suspended by tungsten wires with 1 g of tension and placed in a vessel bath containing serum free DMEM/F12 media at 37° C. aerated with 95% O2-5% CO2, at pH 7.4. Vessels were equilibrated for 20 minutes and then tested with phenylephrine (1 nmol/L-10 μmol/L). Although phenylephrine is structurally not a catecholamine, it is considered to be a functional catecholamine as it activates both a and P adrenoceptors. Due to its favorable stability characteristics, it is widely used as a catecholamine substitute in experiments of this nature. The intensity of contraction was assessed by use of a Narishige micromanipulator and model FT03 force transducer (Grass Instrument Co. West Warwick, R.I.). Measurements were recorded on computer using the Labview 4.1 Virtual Instrument System (National Instruments, Austin, Tex.).

11β-HSD1 Reductase [1] = biological target: T1, 11β-HSD1 Reductase (Rattus norvegicus, UniProt P16232); assay: 11β-HSD1 reductase assay in rat Leydig cell homogenates; settings: for inhibitors of 11β-HSD1 reductase (summary in words): summary of the screening; for Leydig Cell 11β-HSD1 Reductase [S]= 600 nM: rat Leydig cell homogenates, 600 nM 11-dehydro-corticosterone, NADPH, corticosteroid series;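 on all read-outs here: rat Leydig cell homogenate incubated 20 min at 37 °C, pH 7.4, with tritiated 11-dehydro-corticosterone and 3 mM NADPH, product measured by HPLC, inhibition from triplicate dose–response curves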
Protocol: (§1) Each enzyme reaction (described below) was stopped by adding 750 μL MeOH. After centrifugation, an aliquot of supernatant was analyzed by HPLC using a DuPont Zorbax C8 column.
(§2) 11β-HSD1 dehydrogenase was assayed by incubating homogenates (13,000 cells equivalent) with 600 nM [^3H]-B (0.5 μCi) in the presence of 3 mM NADP, 50 mM Tris-HCl; pH 8.4 at 37° C. for 10 minutes in a total volume of 250 μL. 11β-HSD1 reductase was assayed by incubating homogenates (52,000 cells equivalent) with 600 nM [^3H]-11-dehydro-corticosterone in presence of 3 mM NADPH, 50 mM Tris-HCl; pH 7.4 at 37° C. for 20 minutes in a total volume of 250 μL.
(§3) Each concentration was tested in triplicate and the dose response curve, showing percentage inhibition versus log concentration of steroid was plotted. The data fitted a log-linear straight line.

11β-HSD1 Dehydrogenase [2] = biological target: T2, 11β-HSD1 Dehydrogenase (Rattus norvegicus, UniProt P16232); assay: 11β-HSD1 dehydrogenase assay in rat Leydig cell homogenates; type: biochemical; design: Freshly prepared rat Leydig cell homogenates were chosen since they provide a rich and reliable source of both 11β-HSD1 dehydrogenase and reductase; from tissue; host or cells: rat testicular Leydig cells, homogenate;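 further: tritiated corticosterone conversion by 11β-HSD1 dehydrogenase in Leydig homogenates with 3 mM NADP at pH 8.4, 37 °C for 10 min, products resolved by HPLC, inhibition relative to uninhibited enzyme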
Protocol: as §1, §2, §3

11β-HSD1 Reductase [3] = biological target: T1, 11β-HSD1 Reductase; assay: Table 1: inhibition of 11β-HSD1 reductase; type: biochemical; settings: Table 1, inhibition in words
11β-HSD1 Dehydrogenase [4] = biological target: T2, 11β-HSD1 Dehydrogenase; assay: Table 1: inhibition of 11β-HSD1 dehydrogenase; type: biochemical; settings: Table 1, inhibition in words
11β-HSD2 = biological target: T3, 11β-HSD2 (Ovis aries, UniProt P50168); assay: 11β-HSD2 enzyme activity in sheep kidney microsomes; type: biochemical; settings: for inhibitors of 11β-HSD2 (summary in words): summary of the screening
T3 construct: incubating sheep kidney microsomal fraction (6.5 μg protein) with 50 nM corticosterone; from tissue; host or cells: sheep kidney microsomal fraction
T3 sequence (P50168 1-427): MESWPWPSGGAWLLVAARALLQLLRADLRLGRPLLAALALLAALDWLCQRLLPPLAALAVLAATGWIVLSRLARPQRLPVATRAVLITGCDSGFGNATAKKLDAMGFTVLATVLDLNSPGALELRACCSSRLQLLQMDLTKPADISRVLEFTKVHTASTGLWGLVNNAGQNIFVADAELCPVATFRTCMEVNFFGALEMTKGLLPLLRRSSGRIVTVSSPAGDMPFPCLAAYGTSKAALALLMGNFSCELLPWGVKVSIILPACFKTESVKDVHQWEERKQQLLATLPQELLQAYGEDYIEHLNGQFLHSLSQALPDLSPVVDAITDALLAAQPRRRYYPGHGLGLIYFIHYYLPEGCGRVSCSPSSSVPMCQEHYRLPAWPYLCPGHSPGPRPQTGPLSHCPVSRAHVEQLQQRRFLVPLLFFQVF
From the text: The enzymatic reaction was termninated by addition of methanol and synthesis of 11-dehydro-corticosterone was quantitated by HPLC as described above.

[5] = biological target: T4, 11β-HSD1-reductase activity (Rattus norvegicus, UniProt P16232); assay: Metabolism of 3H-11-dehydrocorticosterone back to corticosterone by aortic rings; type: cell-based; settings: 24 hours, compared with nonsense oligomers
T4 construct: from tissue; host or cells: rat aortic rings (intact tissue, 24 h incubation)
Protocol: The effects of 11β-HSD1 and 11β-HSD2 antisense on the inter-conversion of ^3H-corticosterone and ^3H-11-dehydro-corticosterone by aortic rings was also determined. Rings (2-3 mm) obtained in a similar manner as those in the contraction studies, were incubated in 1 ml DMEM/F12 media containing 1% FBS at 37° C. under 95% O2-5% CO2 in 24-well culture plates. Rings were incubated for 24 hours with:
(ii) ^3H-11β-dehydro-corticosterone (10 nmol/L)±11β-HSD1 antisense (3 μmol/L); this experiment was performed in duplicate (n=10 aortic rings per well). Control groups were incubated with the appropriate nonsense oligomer. ^3H-corticosterone in the incubation medium after 24 hrs was then measured. In this experiment, aortic rings were also analyzed for ^3H-corticosterone content. Rings from duplicate incubations (total n=20) were blotted dry, pooled and homogenized in 50% methanol using a Polytron. The homogenates were then centrifuged, extracted as below using Sep-Paks and injected onto a HPLC system for analysis.
Incubation media was collected, ran through a Sep-Pak and eluted with 3 mls of methanol, the eluate was then dried under nitrogen and reconstituted in 500:1 methanol. The aortic rings were dried and weighed. […] Steroids were observed by monitoring radioactivity on-line with a Packard Radiomatic Flo-One/Beta Series A-500 counter connected to a Dell Optiflex 425 S/L computer. […]

11β-HSD2 Dehydrogenase = biological target: T5, 11β-HSD2 Dehydrogenase (Ovis aries, UniProt P50168); assay: Table 1: inhibition of 11β-HSD2 dehydrogenase; type: biochemical; settings: Table 1, inhibition in words
T5 sequence (P50168 1-427): T3 sequence (P50168 1-427)

[6] = rat Leydig cell homogenates, 600 nM corticosterone, NADP, corticosteroid series, read-out: Leydig Cell 11β-HSD1 Dehydrogenase [S]= 600 nM
[7] = 11β-HSD2, sheep kidney microsomes, 50 nM corticosterone, NAD+, aldosterone, cortisol, corticosterone series, read-out: Dehydrogenase [S] = 50 nM

T1 sequence (P16232 whole entry): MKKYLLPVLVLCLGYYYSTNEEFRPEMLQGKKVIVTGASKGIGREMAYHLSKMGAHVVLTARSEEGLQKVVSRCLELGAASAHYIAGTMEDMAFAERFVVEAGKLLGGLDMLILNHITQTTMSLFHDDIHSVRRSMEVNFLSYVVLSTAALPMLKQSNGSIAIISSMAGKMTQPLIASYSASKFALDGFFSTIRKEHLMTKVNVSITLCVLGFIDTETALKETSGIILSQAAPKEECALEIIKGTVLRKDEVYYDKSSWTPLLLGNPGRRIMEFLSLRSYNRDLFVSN
T2 sequence (P16232 whole entry): as above
T4 sequence (P16232 whole entry): as above

Row | Compound | effect on the ability of 11-dehydro-corticosterone to amplify the contractile response to phenylephrine (rat aortic rings) | IC50 (11β-HSD1 Reductase [1]) | inhibitors of 11β-HSD1 reductase (summary in words) (11β-HSD1 Reductase [1]; listed as 11-Keto-Progesterone) | inhibitors of 11β-HSD1 reductase (summary in words) (11β-HSD1 Reductase [1]; listed as 11-keto-progesterone) | IC50 (11β-HSD1 Dehydrogenase [2]) | Leydig Cell 11β-HSDl Dehydrogenase [S] = 600 nM (11β-HSD1 Dehydrogenase [2]; rat Leydig cell homogenates, 600 nM corticosterone, progesterone and androgen derivatives) | 11β-HSD1 Reductase (11β-HSD1 Reductase [3]) | 11β-HSD1 Dehydrogenase (11β-HSD1 Dehydrogenase [4]) | IC50 (11β-HSD2) | inhibitors of 11β-HSD2 (summary in words) (11β-HSD2; listed as 11-keto-progesterone) | production of 3H-corticosterone from 3H-11-dehydrocorticosterone [5] | 11β-HSD2 Dehydrogenase (11β-HSD2 Dehydrogenase) | inhibitors of 11β-HSD1 reductase (summary in words) (11β-HSD1 Reductase [1]) | IC50 (11β-HSD1 Dehydrogenase [2]; [6]) | IC50 (11β-HSD2; [7]) | inhibitors of 11β-HSD2 (summary in words) (11β-HSD2) | Leydig Cell 11β-HSD1 Reductase [S]= 600 nM (11β-HSD1 Reductase [1]) | inhibitors of 11β-HSD2 (summary in words) (11β-HSD2; listed as 3α,5α-TH -aldosterone) | inhibitors of 11β-HSD2 (summary in words) (11β-HSD2; listed as 3α,5α-TH-aldosterone) | inhibitors of 11β-HSD1 dehydrogenase (summary in words) (11β-HSD1 Dehydrogenase [2]; summary of the screening)
1 | CC(=O)[C@H]1CC[C@@H]2[C@@H]3CCC4=CC(=O)CC[C@]4(C)[C@@H]3C(=O)C[C@]12C (stereo in doubt) [11 -Keto-Progesterone, 4-Pregnen-3,11,20-trione] | diminished | 9.5 µM | potent inhibitors | high potency | > 100 µM | inactive | Selective Inhibitor | No Inhibition | 0.4 µM | potent inhibitors; also recorded: high potency | decreased the metabolism | Potent Inhibitor |  |  |  |  |  |  |  | 
2 | C[C@]12CC[C@@H](O)C[C@H]1CC[C@@H]1[C@H]2C(=O)C[C@]2(C)[C@@H](C(=O)CO)CC[C@@H]12 [3α,5α-TH-11-dehydrocorticosterone, 5α-Pregnan-3α,21-diol-11,20-dione] |  | 0.7 µM |  |  |  |  | Potent Inhibitor | No Inhibition |  |  |  | Potent Inhibitor | potent inhibitors; also recorded: high potency | 8 µM | 0.8 µM | potent inhibitors; also recorded: high potency |  |  |  | 
3 | C[C@]12CC[C@@H](O)C[C@H]1CC[C@@H]1[C@H]2[C@@H](O)C[C@]2(C=O)[C@@H](C(=O)CO)CC[C@@H]12 [3α,5α-TH-Aldosterone, 5α-Pregnan-3α,11β,21-triol-20-one-18-al] |  | > 100 µM |  |  |  |  | No Inhibition | Moderate Inhibitor |  |  |  | Potent Inhibitor |  | 25 µM | 0.5 µM |  | inactive | potent inhibitors | high potency | 
4 | C[C@]12CC[C@@H](O)C[C@H]1CC[C@@H]1[C@H]2[C@@H](O)C[C@]2(C)[C@@H](C(=O)CO)CC[C@@H]12 [3α,5α-TH-Corticosterone, 5α-Pregnan-3α,11β,21-triol-20-one] |  |  |  |  |  |  | No Inhibition | Potent Inhibitor |  |  |  | Potent Inhibitor |  | 1.3 µM | 0.26 µM | potent inhibitors; also recorded: high potency | weak inhibitor |  |  | potent inhibitors; also recorded: high potency
